What was measured:
[1] = system: Zucker Diabetic Fatty (ZDF) rat; test: Meal load test in type 2 diabetic model rats (postprandial blood glucose); assay type: in vivo; set-up: unit not given here; details: ZDF rats fasted overnight, oral 10 mg/kg in 5% Arabia gum, blood glucose one hour after meal loading (50 kcal/kg)
Procedure, shortened: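 Overnight-fasted (17 h) ZDF rats, n=6 per group, given compound at 10 or 30 mg/kg orally in 5% Arabia gum 2 h before or just before a 50 kcal/kg AIN-93G meal load. Blood glucose at 1 h; effect expressed as BG1h difference from vehicle.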

[2] = system: NaCT-CHO (CHO cells stably expressing human NaCT); test: Assay of the citric acid cycle activation ([1,5-14C]-citric acid, diffusion of [14C]-CO2); assay type: cell-based; details: 1 hour incubation at 37° C. with [1,5-14C]-citric acid
Procedure, shortened: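 NaCT-CHO cells (pME-CHO empty-vector cells for non-specific counts) were incubated 1 h at 37 °C in Na+-containing HEPES-Tris pH 7.4 with compound plus an equal volume of 0.4 mM [1,5-14C]-citric acid solution. Residual cell radioactivity was counted, [14C]-CO2 diffusion was taken as (Total−R)/(Total−NS)×100%, and EC50 was derived by regression.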

SMILES	BG1h (BG1h difference between compound group and vehicle group) [1]	EC50 [2]	melting point
Cc1cc(/C=C/c2cccc(-c3nn[nH]c3C#N)c2)ccc1F [Example 607, 5-{3-[(E)-2-(4-fluoro-3-methyl-phenyl)-vinyl]-phenyl}-3H-[1,2,3]triazole-4-carbonitrile]	−106.8	450 nM	194 to 196 °C
N#Cc1[nH]nnc1-c1cccc(-c2cc3ccccc3o2)n1 [Example 1573, 5-(6-(benzofuran-2-yl)-pyridin-2-yl)-3H-[1,2,3]triazole-4-carbonitrile]	−132.7	1030 nM	230 to 233 °C
N#Cc1[nH]nnc1-c1cc(Cl)cc(-c2cc3ccccc3s2)c1 [Example 718, 5-(3-benzo[b]thiophen-2-yl-5-chloro-phenyl)-3H-[1,2,3]triazole-4-carbonitrile]	−147.5	1510 nM	231 to 233 °C
N#Cc1[nH]nnc1-c1cccc(/C=C/c2ccc(F)cc2C(F)(F)F)c1 [Example 600, 5-{3-[(E)-2-(4-fluoro-2-trifluoromethyl-phenyl)-vinyl]-phenyl}-3H-[1,2,3]triazole-4-carbonitrile]	−74.0	430 nM	189 to 192 °C
Cc1cc(-c2nn[nH]c2C#N)ccc1-c1nccc(C(F)(F)F)n1 [Example 989, 5-[3-methyl-4-(4-trifluoromethyl-pyrimidin-2-yl)-phenyl]-3H-[1,2,3]triazole-4-carbonitrile]	−116.0	800 nM	214 to 218 °C
N#Cc1[nH]nnc1-c1ccc(/C=C/c2cccc(C(F)(F)F)c2)o1 [Example 137, 5-{5-[(E)-2-(3-trifluoromethyl-phenyl)-vinyl]-furan-2-yl}-3H-[1,2,3]triazole-4-carbonitrile]	−162.6	570 nM	–
N#Cc1[nH]nnc1-c1cccc(/C=C/c2cc(F)cc(C(F)(F)F)c2)c1 [Example 659, 5-{3-[(E)-2-(3-fluoro-5-trifluoromethyl-phenyl)-vinyl]-phenyl}-3H-[1,2,3]triazole-4-carbonitrile]	−161.2	810 nM	–
N#Cc1[nH]nnc1-c1cc(/C=C/c2ccc(F)cc2F)cc(C(F)(F)F)c1 [Example 645, 5-{3-[(E)-2-(2,4-difluoro-phenyl)-vinyl]-5-trifluoromethyl-phenyl}-3H-[1,2,3]triazole-4-carbonitrile]	−121.6	1090 nM	–
N#Cc1[nH]nnc1-c1cccc(/C=C/c2ccc(F)cc2F)c1 [Example 646, 5-{3-[(E)-2-(2,4-difluoro-phenyl)-vinyl]-phenyl}-3H-[1,2,3]triazole-4-carbonitrile]	−89.3	620 nM	–
Cc1cc(-c2ccc(C(F)(F)F)nc2)cc(-c2nn[nH]c2C#N)c1 [Example 11, 5-[3-methyl-5-(6-trifluoromethyl-pyridin-3-yl)-phenyl]-3H-[1,2,3]triazole-4-carbonitrile]	−93.2	670 nM	–
Cc1cc(/C=C/c2ccc(F)cc2)cc(-c2nn[nH]c2C#N)c1 [Example 627, 5-{3-[(E)-2-(4-fluoro-phenyl)-vinyl]-5-methyl-phenyl}-3H-[1,2,3]triazole-4-carbonitrile]	−85.2	740 nM	–
N#Cc1[nH]nnc1-c1cccc(-c2cc(F)cc(C(F)(F)F)c2)c1 [Example 220, 5-(5′-fluoro-3′-trifluoromethyl-biphenyl-3-yl)-3H-[1,2,3]triazole-4-carbonitrile]	−85.6	350 nM	–
N#Cc1[nH]nnc1-c1cc(Cl)cc(-c2ccc(OC(F)(F)F)c(F)c2)c1 [Example 276, 5-(5-chloro-3′-fluoro-4′-trifluoromethoxy-biphenyl-3-yl)-3H-[1,2,3]triazole-4-carbonitrile]	−71.4	850 nM	–
Cc1cc(-c2nccc(C(F)(F)F)n2)cc(-c2nn[nH]c2C#N)c1 [Example 22, 5-[3-methyl-5-(4-trifluoromethyl-pyrimidin-2-yl)-phenyl]-3H-[1,2,3]triazole-4-carbonitrile]	−108.5	650 nM	–
N#Cc1[nH]nnc1-c1cccc(OCc2ccc(C(F)(F)F)c(C(F)(F)F)c2)c1 [Example 423, 5-[3-(3,4-bis-trifluoromethyl-benzyloxy)-phenyl]-3H-[1,2,3]triazole-4-carbonitrile]	−87.6	920 nM	–
N#Cc1[nH]nnc1-c1cc(OC(F)(F)F)cc(-c2ccc3c(c2)OC(F)(F)O3)c1 [Example 934, 5-[3-(2,2-difluoro-benzo[1,3]dioxol-5-yl)-5-trifluoromethoxy-phenyl]-3H-[1,2,3]triazole-4-carbonitrile]	−87.2	510 nM	–
N#Cc1[nH]nnc1-c1cc2ccc(-c3ccc(F)cc3)cc2o1 [Example 147, 5-[6-(4-fluoro-phenyl)-benzofuran-2-yl]-3H-[1,2,3]triazole-4-carbonitrile]	−80.5	1660 nM	–
CCc1sc(-c2ccc(Cl)cc2F)nc1-c1nn[nH]c1C#N [Example 1248, 5-[2-(4-chloro-2-fluoro-phenyl)-5-ethyl-thiazol-4-yl]-3H-[1,2,3]triazole-4-carbonitrile]	−82.2	3050 nM	–
N#Cc1[nH]nnc1-c1cc(Cl)cc(/C=C/c2cccc(OC(F)(F)F)c2)c1 [Example 649, 5-{3-chloro-5-[(E)-2-(3-trifluoromethoxy-phenyl)-vinyl]-phenyl}-3H-[1,2,3]triazole-4-carbonitrile]	−99.4	2470 nM	–
N#Cc1[nH]nnc1-c1cccc(-c2ccc3c(c2)OC(F)(F)O3)c1 [Example 931, 5-[3-(2,2-difluoro-benzo[1,3]dioxol-5-yl)-phenyl]-3H-[1,2,3]triazole-4-carbonitrile]	−76.4	690 nM	–
N#Cc1ccc(/C=C/c2cccc(-c3nn[nH]c3C#N)c2)cc1 [Example 41, 5-{3-[(E)-2-(4-cyano-phenyl)-vinyl]-phenyl}-3H-[1,2,3]triazole-4-carbonitrile]	−158.0	390 nM	–
Cc1sc(-c2ccc(F)c(Cl)c2)nc1-c1nn[nH]c1C#N [Example 90, 5-[2-(3-chloro-4-fluoro-phenyl)-5-methyl-thiazol-4-yl]-3H-[1,2,3]triazole-4-carbonitrile]	−119.0	560 nM	–
N#Cc1[nH]nnc1-c1cccc(/C=C/c2ccc(C(F)(F)F)cc2)c1 [Example 617, 5-{3-[(E)-2-(4-trifluoromethyl-phenyl)-vinyl]-phenyl}-3H-[1,2,3]triazole-4-carbonitrile]	−113.3	480 nM	–

Source: patent publication US10626095B2, “Cyanotriazole compounds” (OTSUKA PHARMACEUTICAL CO., LTD., priority 2013, dated 2020)
